Legend:
[1] = test system: human Norovirus replicon (GT1, HG23 cell line); test: Primary anti-Norovirus assay, RNA hybridization (replicon); conditions: for Sl50 - CC50/EC50 / Sl90 - CC50/EC90: RNA hybridization (replicon), HG23 cells
[2] = test system: human Norovirus replicon (GT1, HG23 cell line); test: Secondary anti-Norovirus assay, quantitative polymerase chain reaction (replicon); conditions: for Sl50 - CC50/EC50 / Sl90 - CC50/EC90: quantitative PCR (replicon), HG23 cells
Hepatitis C virus = type: cell-based
Adenorovirusirus-5 = type: cell-based
[3] = test system: Venezuelan equine encephalalitis virus; type: cell-based
Hepatitis B virus = type: cell-based
[4] = Neutral red (toxicity), secondary assay; conditions: human
Human cytomegalovirus = type: cell-based
Yellow fever virus = type: cell-based
tacaribe virus = type: cell-based
[5] = Cytotoxicity by neutral red dye uptake, primary assay; conditions: human
polio virus = type: cell-based
Vaccina virus = type: cell-based
Herpes Simpex Virus 1 = type: cell-based
Rift valley fever virus = type: cell-based
Herpes Simpex Virus 2 = type: cell-based

C[C@@]1(O)[C@H](O)[C@@H](CO)O[C@H]1n1ccc(N)nc1=O [2′C-methyl cytidine, reference compound]
Sl50 - CC50/EC50 [1]: >48 | Sl90 - CC50/EC90 [1]: >16 | Sl50 - CC50/EC50 [2]: >50 | Sl90 - CC50/EC90 [2]: >17

COc1c(C)cnc(Cn2cnc3c(Cl)cc(N)cc32)c1C [Compound 1, 4-Chloro-1-((4-methoxy-3,5-dimethylpyridin-2-yl)methyl)-1H-benzo[d]imidazo-6-amine]
antiviral activity (Hepatitis C virus): did not have activity | antiviral activity (Adenorovirusirus-5): did not have activity | antiviral activity [3]: did not have activity | antiviral activity (Hepatitis B virus): did not have activity | CC50 at 3 day [4]: > 50 µM | antiviral activity (Human cytomegalovirus): did not have activity | antiviral activity (Yellow fever virus): did not have activity | antiviral activity (tacaribe virus): did not have activity | CC50 at 3 day [5]: > 100 µM | antiviral activity (polio virus): did not have activity | antiviral activity (Vaccina virus): did not have activity | EC50 ([1]; Norovirus, GT1, HG23, in Homo sapiens, 72 h, read-out: EC50 - compound concentration that reduces viral replication by 50%): 0.617 µM | EC90 ([1]; Norovirus, GT1, HG23, in Homo sapiens, 72 h, read-out: EC90 - compound concentration that reduces viral replication by 90%): 7.5 µM | Sl50 - CC50/EC50 [1]: >162 | Sl90 - CC50/EC90 [1]: >13 | activity against Norovirus in the primary screen ([1]; primary screen): active | antiviral activity (Herpes Simpex Virus 1): did not have activity | EC50 ([2]; Norovirus, GT1, HG23, in Homo sapiens, read-out: EC50 - compound concentration that reduces viral replication by 50%): 1.4 µM | EC90 ([2]; Norovirus, GT1, HG23, in Homo sapiens, read-out: EC90 - compound concentration that reduces viral replication by 90%): 8.5 µM | Sl50 - CC50/EC50 [2]: >36 | Sl90 - CC50/EC90 [2]: >6 | activity against Norovirus, data confirmed in the secondary assay ([2]; secondary assay): confirmed | antiviral activity (Rift valley fever virus): did not have activity | antiviral activity (Herpes Simpex Virus 2): did not have activity

— patent US9375419B1 (priority 2014, dated 2016)
